Source: PMC8699473, “An Easily Expandable Multi-Drug LC-MS Assay for the Simultaneous Quantification of 57 Oral Antitumor Drugs in Human Plasma” (Cancers, 2021)

How the values were obtained:
[1] = Freeze-thaw stability in spiked pooled human plasma; type: physicochemical
[2] = Autosampler stability of ready for injection samples; type: physicochemical, human
[3] = parameters: method as in supplement references [1-55] as printed per drug; conditions: minimum steady-state blood plasma concentration after multiple dose administration; ref supplement references [1-55] per drug; cited from earlier work
[4] = Long-term stability in spiked pooled human plasma
[5] = Short-term stability in spiked pooled human plasma (bench-top, 4 °C, 56 °C)

SMILES: COc1cc2ncnc(Nc3ccc(F)c(Cl)c3)c2cc1NC(=O)/C=C/CN1CCCCC1 [Dacomitinib]
- Freeze-Thaw Accuracy [%] ([1]; validation standard 2xLLOV): 92.5%
- Freeze-Thaw Accuracy [%] ([1]; validation standard LLOV): 89.8%
- Freeze-Thaw Accuracy [%] ([1]; validation standard MOV): 95.9%
- Freeze-Thaw Accuracy [%] ([1]; validation standard ULOV): 96.3%
- Autosampler (24h, 4°C) Accuracy [%] ([2]; validation standard 2xLLOV): 102.5%
- Autosampler (72h, 4°C) Accuracy [%] ([2]; validation standard 2xLLOV): 99.5%
- Autosampler (24h, 4°C) Accuracy [%] ([2]; validation standard LLOV): 93.3%
- Autosampler (72h, 4°C) Accuracy [%] ([2]; validation standard LLOV): 92.3%
- Autosampler (24h, 4°C) Accuracy [%] ([2]; validation standard MOV): 104.5%
- Autosampler (72h, 4°C) Accuracy [%] ([2]; validation standard MOV): 100.5%
- Autosampler (24h, 4°C) Accuracy [%] ([2]; validation standard ULOV): 98.4%
- Autosampler (72h, 4°C) Accuracy [%] ([2]; validation standard ULOV): 98.0%
- cmin [3]: 73.1 ng/mL
- Long-term stability, 1 month, -20°C Accuracy [%] ([4]; validation standard 2xLLOV): 94.4%
- Long-term stability, 1 month, -80°C Accuracy [%] ([4]; validation standard 2xLLOV): 91.2%
- Long-term stability, 2 month, -20°C Accuracy [%] ([4]; validation standard 2xLLOV): 96.1%
- Long-term stability, 2 month, -80°C Accuracy [%] ([4]; validation standard 2xLLOV): 107.1%
- Long-term stability, 3 month, -20°C Accuracy [%] ([4]; validation standard 2xLLOV): 89.4%
- Long-term stability, 3 month, -80°C Accuracy [%] ([4]; validation standard 2xLLOV): 94.7%
- Long-term stability, 6 weeks, 4°C, without daylight Accuracy [%] ([4]; validation standard 2xLLOV): 62.3%
- Long-term stability, 1 month, -20°C Accuracy [%] ([4]; validation standard LLOV): 86.5%
- Long-term stability, 1 month, -80°C Accuracy [%] ([4]; validation standard LLOV): 87.2%
- Long-term stability, 2 month, -20°C Accuracy [%] ([4]; validation standard LLOV): 96.8%
- Long-term stability, 2 month, -80°C Accuracy [%] ([4]; validation standard LLOV): 105.1%
- Long-term stability, 3 month, -20°C Accuracy [%] ([4]; validation standard LLOV): 83.4%
- Long-term stability, 3 month, -80°C Accuracy [%] ([4]; validation standard LLOV): 96.1%
- Long-term stability, 6 weeks, 4°C, without daylight Accuracy [%] ([4]; validation standard LLOV): 61.0%
- Long-term stability, 1 month, -20°C Accuracy [%] ([4]; validation standard MOV): 91.7%
- Long-term stability, 1 month, -80°C Accuracy [%] ([4]; validation standard MOV): 95.2%
- Long-term stability, 2 month, -20°C Accuracy [%] ([4]; validation standard MOV): 95.1%
- Long-term stability, 2 month, -80°C Accuracy [%] ([4]; validation standard MOV): 99.2%
- Long-term stability, 3 month, -20°C Accuracy [%] ([4]; validation standard MOV): 90.9%
- Long-term stability, 3 month, -80°C Accuracy [%] ([4]; validation standard MOV): 99.4%
- Long-term stability, 6 weeks, 4°C, without daylight Accuracy [%] ([4]; validation standard MOV): 79.1%
- Long-term stability, 1 month, -20°C Accuracy [%] ([4]; validation standard ULOV): 93.0%
- Long-term stability, 1 month, -80°C Accuracy [%] ([4]; validation standard ULOV): 93.2%
- Long-term stability, 2 month, -20°C Accuracy [%] ([4]; validation standard ULOV): 96.3%
- Long-term stability, 2 month, -80°C Accuracy [%] ([4]; validation standard ULOV): 99.6%
- Long-term stability, 3 month, -20°C Accuracy [%] ([4]; validation standard ULOV): 90.3%
- Long-term stability, 3 month, -80°C Accuracy [%] ([4]; validation standard ULOV): 97.6%
- Long-term stability, 6 weeks, 4°C, without daylight Accuracy [%] ([4]; validation standard ULOV): 77.8%
- Short-time stability (1h, 56°C) Accuracy [%] ([5]; validation standard 2xLLOV): 30.6%
- Short-time stability (24h, 4°C, without daylight) Accuracy [%] ([5]; validation standard 2xLLOV): 94.9%
- Short-time stability (24h, RT, with daylight) Accuracy [%] ([5]; validation standard 2xLLOV): 86.7%
- Short-time stability (24h, RT, without daylight) Accuracy [%] ([5]; validation standard 2xLLOV): 88.5%
- Short-time stability (1h, 56°C) Accuracy [%] ([5]; validation standard LLOV): 10.3%
- Short-time stability (24h, 4°C, without daylight) Accuracy [%] ([5]; validation standard LLOV): 90.8%
- Short-time stability (24h, RT, with daylight) Accuracy [%] ([5]; validation standard LLOV): 74.6%
- Short-time stability (24h, RT, without daylight) Accuracy [%] ([5]; validation standard LLOV): 72.7%
- Short-time stability (1h, 56°C) Accuracy [%] ([5]; validation standard MOV): 37.3%
- Short-time stability (24h, 4°C, without daylight) Accuracy [%] ([5]; validation standard MOV): 97.9%
- Short-time stability (24h, RT, with daylight) Accuracy [%] ([5]; validation standard MOV): 89.8%
- Short-time stability (24h, RT, without daylight) Accuracy [%] ([5]; validation standard MOV): 91.1%
- Short-time stability (1h, 56°C) Accuracy [%] ([5]; validation standard ULOV): 33.3%
- Short-time stability (24h, 4°C, without daylight) Accuracy [%] ([5]; validation standard ULOV): 92.4%
- Short-time stability (24h, RT, with daylight) Accuracy [%] ([5]; validation standard ULOV): 85.6%
- Short-time stability (24h, RT, without daylight) Accuracy [%] ([5]; validation standard ULOV): 89.1%

SMILES: COC(=O)N[C@@H](C)CNc1nccc(-c2cn(C(C)C)nc2-c2cc(Cl)cc(NS(C)(=O)=O)c2F)n1 [Encorafenib]
- Freeze-Thaw Accuracy [%] ([1]; validation standard 2xLLOV): 94.9%
- Freeze-Thaw Accuracy [%] ([1]; validation standard LLOV): 90.4%
- Freeze-Thaw Accuracy [%] ([1]; validation standard MOV): 101.4%
- Freeze-Thaw Accuracy [%] ([1]; validation standard ULOV): 98.7%
- Autosampler (24h, 4°C) Accuracy [%] ([2]; validation standard 2xLLOV): 102.4%
- Autosampler (72h, 4°C) Accuracy [%] ([2]; validation standard 2xLLOV): 102.6%
- Autosampler (24h, 4°C) Accuracy [%] ([2]; validation standard LLOV): 87.7%
- Autosampler (72h, 4°C) Accuracy [%] ([2]; validation standard LLOV): 98.2%
- Autosampler (24h, 4°C) Accuracy [%] ([2]; validation standard MOV): 112.5%
- Autosampler (72h, 4°C) Accuracy [%] ([2]; validation standard MOV): 110.5%
- Autosampler (24h, 4°C) Accuracy [%] ([2]; validation standard ULOV): 100.5%
- Autosampler (72h, 4°C) Accuracy [%] ([2]; validation standard ULOV): 102.4%
- cmin [3]: 23 ng/mL
- Long-term stability, 1 month, -20°C Accuracy [%] ([4]; validation standard 2xLLOV): 100.7%
- Long-term stability, 1 month, -80°C Accuracy [%] ([4]; validation standard 2xLLOV): 93.5%
- Long-term stability, 2 month, -20°C Accuracy [%] ([4]; validation standard 2xLLOV): 111.7%
- Long-term stability, 2 month, -80°C Accuracy [%] ([4]; validation standard 2xLLOV): 104.1%
- Long-term stability, 3 month, -20°C Accuracy [%] ([4]; validation standard 2xLLOV): 97.4%
- Long-term stability, 3 month, -80°C Accuracy [%] ([4]; validation standard 2xLLOV): 95.2%
- Long-term stability, 6 weeks, 4°C, without daylight Accuracy [%] ([4]; validation standard 2xLLOV): 95.2%
- Long-term stability, 1 month, -20°C Accuracy [%] ([4]; validation standard LLOV): 84.2%
- Long-term stability, 1 month, -80°C Accuracy [%] ([4]; validation standard LLOV): 88.1%
- Long-term stability, 2 month, -20°C Accuracy [%] ([4]; validation standard LLOV): 103.4%
- Long-term stability, 2 month, -80°C Accuracy [%] ([4]; validation standard LLOV): 93.1%
- Long-term stability, 3 month, -20°C Accuracy [%] ([4]; validation standard LLOV): 96.1%
- Long-term stability, 3 month, -80°C Accuracy [%] ([4]; validation standard LLOV): 94.9%
- Long-term stability, 6 weeks, 4°C, without daylight Accuracy [%] ([4]; validation standard LLOV): 81.0%
- Long-term stability, 1 month, -20°C Accuracy [%] ([4]; validation standard MOV): 99.0%
- Long-term stability, 1 month, -80°C Accuracy [%] ([4]; validation standard MOV): 97.1%
- Long-term stability, 2 month, -20°C Accuracy [%] ([4]; validation standard MOV): 102.3%
- Long-term stability, 2 month, -80°C Accuracy [%] ([4]; validation standard MOV): 104.9%
- Long-term stability, 3 month, -20°C Accuracy [%] ([4]; validation standard MOV): 101.8%
- Long-term stability, 3 month, -80°C Accuracy [%] ([4]; validation standard MOV): 100.8%
- Long-term stability, 6 weeks, 4°C, without daylight Accuracy [%] ([4]; validation standard MOV): 109.2%
- Long-term stability, 1 month, -20°C Accuracy [%] ([4]; validation standard ULOV): 99.1%
- Long-term stability, 1 month, -80°C Accuracy [%] ([4]; validation standard ULOV): 95.7%
- Long-term stability, 2 month, -20°C Accuracy [%] ([4]; validation standard ULOV): 104.0%
- Long-term stability, 2 month, -80°C Accuracy [%] ([4]; validation standard ULOV): 101.8%
- Long-term stability, 3 month, -20°C Accuracy [%] ([4]; validation standard ULOV): 100.7%
- Long-term stability, 3 month, -80°C Accuracy [%] ([4]; validation standard ULOV): 99.0%
- Long-term stability, 6 weeks, 4°C, without daylight Accuracy [%] ([4]; validation standard ULOV): 101.7%
- Short-time stability (1h, 56°C) Accuracy [%] ([5]; validation standard 2xLLOV): 54.9%
- Short-time stability (24h, 4°C, without daylight) Accuracy [%] ([5]; validation standard 2xLLOV): 106.5%
- Short-time stability (24h, RT, with daylight) Accuracy [%] ([5]; validation standard 2xLLOV): 109.5%
- Short-time stability (24h, RT, without daylight) Accuracy [%] ([5]; validation standard 2xLLOV): 112.9%
- Short-time stability (24h, 4°C, without daylight) Accuracy [%] ([5]; validation standard LLOV): 110.1%
- Short-time stability (24h, RT, with daylight) Accuracy [%] ([5]; validation standard LLOV): 108.1%
- Short-time stability (24h, RT, without daylight) Accuracy [%] ([5]; validation standard LLOV): 104.0%
- Short-time stability (1h, 56°C) Accuracy [%] ([5]; validation standard MOV): 54.0%
- Short-time stability (24h, 4°C, without daylight) Accuracy [%] ([5]; validation standard MOV): 102.1%
- Short-time stability (24h, RT, with daylight) Accuracy [%] ([5]; validation standard MOV): 105.9%
- Short-time stability (24h, RT, without daylight) Accuracy [%] ([5]; validation standard MOV): 109.8%
- Short-time stability (1h, 56°C) Accuracy [%] ([5]; validation standard ULOV): 44.5%
- Short-time stability (24h, 4°C, without daylight) Accuracy [%] ([5]; validation standard ULOV): 98.5%
- Short-time stability (24h, RT, with daylight) Accuracy [%] ([5]; validation standard ULOV): 108.8%
- Short-time stability (24h, RT, without daylight) Accuracy [%] ([5]; validation standard ULOV): 108.3%
